Results reported in patent publication US9017689B2, “Peptides for vaccine against birch allergy” (Circassia Limited, priority 2010, dated 2015).
Like-named read-outs stand apart in the source and are kept apart here. Ends that are not written are not given here.

Assay: Solubility screening in trehalose matrices pH 2.65 to 7.03;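 also: test items are peptides, each checked for solubility in every trehalose matrix, the matrices made up in distilled deionised water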
Assay type: physicochemical
Settings: for solubility: read-out: Solubility [mg per ml]
[1] = 2 mM HCl and 260 mM trehalose dihydrate, pH 2.65
[2] = 10 mM potassium dihydrogen phosphate and 260 mM trehalose dihydrate, pH 6.03
[3] = 10 mM potassium dihydrogen phosphate and 260 mM trehalose dihydrate, pH 7.03
[4] = 10 mM sodium citrate and 260 mM trehalose dihydrate, pH 3.01
[5] = 10 mM sodium citrate and 260 mM trehalose dihydrate, pH 3.99
[6] = 10 mM sodium citrate and 260 mM trehalose dihydrate, pH 5.02
[7] = 10 mM sodium citrate and 260 mM trehalose dihydrate, pH 6.01
[8] = aqueous buffer, 10 mM potassium dihydrogen phosphate and 260 mM trehalose dihydrate, pH 6.03
[9] = aqueous buffer, 10 mM potassium dihydrogen phosphate and 260 mM trehalose dihydrate, pH 7.03
[10] = aqueous buffer, 10 mM sodium citrate and 260 mM trehalose dihydrate, pH 3.01
[11] = aqueous buffer, 10 mM sodium citrate and 260 mM trehalose dihydrate, pH 3.99
[12] = aqueous buffer, 10 mM sodium citrate and 260 mM trehalose dihydrate, pH 5.02
[13] = aqueous buffer, 10 mM sodium citrate and 260 mM trehalose dihydrate, pH 6.01
[14] = water, 2 mM HCl and 260 mM trehalose dihydrate, pH 2.65

Experimental: The solubility of each of the nine peptides was evaluated in each of the matrices in accordance with Appendix 1.
Each matrix was prepared at a concentration of 10 mM of the buffering agent.
The procedure indicated is for the preparation of 100 mL of each buffer, but alternative volumes can be prepared by adjusting the quantities. • 0.1M stock solutions of sodium citrate and potassium dihydrogen phosphate were prepared. • Weight of trehalose dihydrate equivalent to 260 mM was transferred to an appropriate mixing vessel containing 70-80 mL of distilled deionised water and allowed to dissolve. • 10 mL of the appropriate stock 0.1M buffer solution was added to the mixing vessel and stirred. • The pH of the matrix was adjusted to the desired value by adding 2 mM hydrochloric acid or 0.1M sodium hydroxide as required. • The solutions were finally diluted to 100 g weight and the pH re-assessed.

| Sequence | Comments (solubility on preparation) [1] | Solubility [mg per ml 'as is'] [1] [mg per ml ‘as is’] | Solubility [μmol per ml] [1] [μmol per ml] | Solubility after 24 Hours [1] | Solubility [mg per ml 'as is'] [2] [mg per ml ‘as is’] | Solubility [μmol per ml] [2] [μmol per ml] | Comments (solubility on preparation) [3] | Solubility [mg per ml 'as is'] [3] [mg per ml ‘as is’] | Solubility [μmol per ml] [3] [μmol per ml] | Solubility after 24 Hours [3] | Comments (solubility on preparation) [4] | Solubility [mg per ml 'as is'] [4] [mg per ml ‘as is’] | Solubility [μmol per ml] [4] [μmol per ml] | Solubility after 24 Hours [4] | Solubility [mg per ml 'as is'] [5] [mg per ml ‘as is’] | Comments (solubility on preparation) [7] | Solubility [mg per ml 'as is'] [7] [mg per ml ‘as is’] | Solubility [μmol per ml] [7] [μmol per ml] | Solubility after 24 Hours [7] | solubility [13] [µg/mL] | further results |
| --- | --- | --- | --- | --- | --- | --- | --- | --- | --- | --- | --- | --- | --- | --- | --- | --- | --- | --- | --- | --- | --- |
| AERERIFKRFDANGEGK [Bir16A] | Completely dissolved | 24.86 | 10.652 | Completely dissolved | 21.54 | 9.229 | Completely dissolved | 21.98 | 9.418 | Completely dissolved | Completely dissolved | 7.17 | 3.074 | Completely dissolved | 7.49 | Completely dissolved | 25.86 | 11.080 | Completely dissolved | ≥ 22400 | Commute (solubility on preparation) [2]: Completely dissolved; Solubility after 24 Hours [2]: Completely dissolved; Comments (solubility on preparation) [5]: Completely dissolved; Solubility [μmol per ml] [5]: 3.208 μmol per ml; Solubility after 24 Hours [5]: Completely dissolved; Comments (solubility on preparation) [6]: Completely dissolved; Solubility [mg per ml 'as is'] [6]: 23.16 mg per ml ‘as is’; Solubility [μmol per ml] [6]: 9.923 μmol per ml; Solubility after 24 Hours [6]: Completely dissolved; solubility [8]: ≥ 18700 µg/mL; solubility [9]: ≥ 19100 µg/mL; solubility [10]: ≥ 6220 µg/mL; solubility [11]: ≥ 6490 µg/mL; solubility [12]: ≥ 20100 µg/mL; solubility [14]: ≥ 21600 µg/mL |
| AKYMVIQGEPGRVIRGK [Bir12B] | Completely dissolved | 10.22 | 4.490 | Completely dissolved | 23.84 | 10.474 | Completely dissolved | 20.62 | 9.060 | Completely dissolved | Completely dissolved | 5.47 | 2.403 | Completely dissolved | 10.32 | Completely dissolved. | 2.28 | 1.002 | Completely dissolved. | ≥ 1910 | Commute (solubility on preparation) [2]: Completely dissolved; Solubility after 24 Hours [2]: Completely dissolved; Comments (solubility on preparation) [5]: Completely dissolved; Solubility [μmol per ml] [5]: 4.534 μmol per ml; Solubility after 24 Hours [5]: Completely dissolved; Comments (solubility on preparation) [6]: Completely dissolved; Solubility [mg per ml 'as is'] [6]: 5.84 mg per ml ‘as is’; Solubility [μmol per ml] [6]: 2.564 μmol per ml; Solubility after 24 Hours [6]: Completely dissolved; solubility [8]: ≥ 19900 µg/mL; solubility [9]: ≥ 17200 µg/mL; solubility [10]: ≥ 4570 µg/mL; solubility [11]: ≥ 8630 µg/mL; solubility [12]: ≥ 4880 µg/mL; solubility [14]: ≥ 8540 µg/mL |
| ETLLRAVESYLLAHSDAY [Bir09] | Completely dissolved• | 0.92 | 0.379 | Completely dissolved• | 0.35 | 0.143 | Completely dissolved | 1.52 | 0.627 | Completely dissolved | Undissolved in 1.5 mL• | 0.37 | 0.153 | Undissolved | 0.36 | Completely dissolved | 1.03 | 0.426 | completely dissolved | ≥ 875 | Solubility [mg per ml] [4]: 0.314 mg per ml; Solubility [μmol per ml] [5]: 0.148 μmol per ml; Solubility [mg per ml 'as is'] [6]: 0.37 mg per ml ‘as is’; Solubility [μmol per ml] [6]: 0.154 μmol per ml; solubility [8]: ≥ 293 µg/mL; solubility [9]: ≥ 1290 µg/mL; solubility [11]: ≥ 303 µg/mL; solubility [12]: ≥ 315 µg/mL; solubility [14]: ≥ 777 µg/mL |
| FNYETETTSVIPAARK [BIR1I] | Completely dissolved | 19.50 | 9.222 | Completely dissolved | 22.14 | 10.470 | Completely dissolved | 20.78 | 9.827 | Completely dissolved | Completely dissolved | 1.65 | 0.779 | Completely dissolved | 2.28 | Completely dissolved | 7.45 | 3.522 | Completely dissolved | ≥ 6430 | Commute (solubility on preparation) [2]: Completely dissolved; Solubility after 24 Hours [2]: Completely dissolved; Comments (solubility on preparation) [5]: Completely dissolved; Solubility [μmol per ml] [5]: 1.078 μmol per ml; Solubility after 24 Hours [5]: Completely dissolved; Comments (solubility on preparation) [6]: Completely dissolved; Solubility [mg per ml 'as is'] [6]: 2.30 mg per ml ‘as is’; Solubility [μmol per ml] [6]: 1.089 μmol per ml; Solubility after 24 Hours [6]: Completely dissolved; solubility [8]: ≥ 19100 µg/mL; solubility [9]: ≥ 18000 µg/mL; solubility [10]: ≥ 1420 µg/mL; solubility [11]: ≥ 1970 µg/mL; solubility [12]: ≥ 1990 µg/mL; solubility [14]: ≥ 16800 µg/mL |
| KEMGETLLRAVESYLLAHS [BIR09R] |  |  |  |  |  |  |  |  |  |  |  |  |  |  |  | Completely dissolved | 4.92 | 1.993 | Completely dissolved | ≥ 4280 |  |
